Measurements: patent publication US20230312605A1, “PYRROLO[2,1-F][1,2,4]TRIAZINES AND PREPARATION AND USES THEREOF” (BioSplice Therapeutics, Inc., priority 2021, published 2023)
pEC50: −log10 of the molar value.

Target: recombinant DYRK1A kinase (Homo sapiens (Human), UniProt Q13627)
Assay: DYRK1A kinase assay (Ser/Thr 18 peptide Z-lyte FRET assay)
Format: biochemical
Conditions: recombinant DYRK1A 0.25 µg/mL, ATP 15 µM, Ser/Thr peptide 18 4 µM, one hour at room temperature; table head prints EC50, method says IC50
Summary of the method: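 Z-lyte FRET format: 1 h room-temperature reaction of 15 µM ATP, 4 µM Ser/Thr 18 peptide and 0.25 µg/mL recombinant human DYRK1A, in duplicate over 11 compound concentrations up to 10 µM. IC50 was derived by non-linear regression of percent phosphorylation calculated from coumarin/fluorescein emission ratios.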

| Compound | pEC50 |
| --- | --- |
| Cc1nc2ccc(-c3ccn4nc(NC5CCC(F)(F)CC5)ncc34)nc2n1CC1CNC1 [Compound 1873, 5-(3-(Azetidin-3-ylmethyl)-2-methyl-3H-imidazo[4,5-b]pyridin-5-yl)-N-(4,4-difluorocyclohexyl)pyrrolo[2,1-f][1,2,4]triazin-2-amine] | 6.88 |
| Cc1nc2ccc(-c3ccn4nc(N[C@H]5CC[C@@](C)(O)CC5)ncc34)nc2n1CC1COC1 [Compound 1875, cis-1-Methyl-4-((5-(2-methyl-3-(oxetan-3-ylmethyl)-3H-imidazo[4,5-b]pyridin-5-yl)pyrrolo[2,1-f][1,2,4]triazin-2-yl)amino)cyclohexan-1-ol] | 7.85 |
| [2H]C([2H])([2H])O[C@H]1CC[C@@H](Nc2ncc3c(-c4cnc5nc(C)n(CC(F)F)c5c4)ccn3n2)CC1 [Compound 1876] | 8.70 |
| Cc1nc2ncc(-c3ccn4nc(N[C@H]5CC[C@@H](OCC(F)F)CC5)ncc34)cc2n1CC(F)F [Compound 1877] | 8.70 |
| Cc1nc2ncc(-c3ccn4nc(N[C@H]5CC[C@@H](OCCO)CC5)ncc34)cc2n1CC(F)F [Compound 1878, 2-((cis-4-((5-(1-(2,2-Difluoroethyl)-2-methyl-1H-imidazo[4,5-b]pyridin-6-yl)pyrrolo[2,1-f][1,2,4]triazin-2-yl)amino)cyclohexyl)oxy)ethan-1-ol] | 8.70 |
| Cc1nc2ncc(-c3ccn4nc(N[C@H]5CC[C@](C)(O)CC5)ncc34)cc2n1CC(F)F [Compound 1879, trans-4-((5-(1-(2,2-Difluoroethyl)-2-methyl-1H-imidazo[4,5-b]pyridin-6-yl)pyrrolo[2,1-f][1,2,4]triazin-2-yl)amino)-1-methylcyclohexan-1-ol] | 8.70 |
| Cc1nc2ncc(-c3ccn4nc(NC5CCC6(CC5)OCCO6)ncc34)cc2n1CC(F)F [Compound 1880, 5-(1-(2,2-Difluoroethyl)-2-methyl-1H-imidazo[4,5-b]pyridin-6-yl)-N-(1,4-dioxaspiro[4.5]decan-8-yl)pyrrolo[2,1-f][1,2,4]triazin-2-amine] | 8.52 |
| Cc1nc2ncc(-c3ccn4nc(NC5CCN(CCF)CC5)ncc34)cc2n1CC(F)F [Compound 1881, 5-(1-(2,2-Difluoroethyl)-2-methyl-1H-imidazo[4,5-b]pyridin-6-yl)-N-(1-(2-fluoroethyl)piperidin-4-yl)pyrrolo[2,1-f][1,2,4]triazin-2-amine] | 8.70 |
| Cc1nc2ncc(-c3ccn4nc(NC5CCN(CC(F)F)CC5)ncc34)cc2n1CC(F)F [Compound 1882, 5-(1-(2,2-Difluoroethyl)-2-methyl-1H-imidazo[4,5-b]pyridin-6-yl)-N-(1-(2,2-difluoroethyl)piperidin-4-yl)pyrrolo[2,1-f][1,2,4]triazin-2-amine] | 8.40 |
| Cc1nc2ncc(-c3ccn4nc(NC5CCN(CCC(F)(F)F)CC5)ncc34)cc2n1CC(F)F [Compound 1883, 5-(1-(2,2-Difluoroethyl)-2-methyl-1H-imidazo[4,5-b]pyridin-6-yl)-N-(1-(3,3,3-trifluoropropyl)piperidin-4-yl)pyrrolo[2,1-f][1,2,4]triazin-2-amine] | 8.05 |
| Cc1nc2ncc(-c3ccn4nc(N[C@@H]5CCN(C)C[C@@H]5F)ncc34)cc2n1CC(F)F [Compound 1884, 5-(1-(2,2-Difluoroethyl)-2-methyl-1H-imidazo[4,5-b]pyridin-6-yl)-N-((3S,4R)-3-fluoro-1-methylpiperidin-4-yl)pyrrolo[2,1-f][1,2,4]triazin-2-amine] | 8.15 |
| Cc1nc2ncc(-c3ccn4nc(N[C@@H]5CCN(C)C[C@H]5F)ncc34)cc2n1CC(F)F [Compound 1885, 5-(1-(2,2-Difluoroethyl)-2-methyl-1H-imidazo[4,5-b]pyridin-6-yl)-N-((3R,4R)-3-fluoro-1-methylpiperidin-4-yl)pyrrolo[2,1-f][1,2,4]triazin-2-amine] | 8.22 |
| Cc1nc2ncc(-c3ccn4nc(N[C@H]5CCN(C)C[C@@H]5F)ncc34)cc2n1CC(F)F [Compound 1886, 5-(1-(2,2-Difluoroethyl)-2-methyl-1H-imidazo[4,5-b]pyridin-6-yl)-N-((3S,4S)-3-fluoro-1-methylpiperidin-4-yl)pyrrolo[2,1-f][1,2,4]triazin-2-amine] | 8.52 |
| Cc1nc2ncc(-c3ccn4nc(N[C@H]5CCN(C)C[C@H]5F)ncc34)cc2n1CC(F)F [Compound 1887, 5-(1-(2,2-Difluoroethyl)-2-methyl-1H-imidazo[4,5-b]pyridin-6-yl)-N-((3R,4S)-3-fluoro-1-methylpiperidin-4-yl)pyrrolo[2,1-f][1,2,4]triazin-2-amine] | 7.51 |
| Cc1nc2ncc(-c3ccn4nc(NC5CCN(C(=O)C(C)C)CC5)ncc34)cc2n1CC(F)F [Compound 1888, 1-(4-((5-(1-(2,2-Difluoroethyl)-2-methyl-1H-imidazo[4,5-b]pyridin-6-yl)pyrrolo[2,1-f][1,2,4]triazin-2-yl)amino)piperidin-1-yl)-2-methylpropan-1-one] | 8.52 |
| Cc1nc2ncc(-c3ccn4nc(NC5CCN(C6COC6)CC5)ncc34)cc2n1CC(F)F [Compound 1889, 5-(1-(2,2-Difluoroethyl)-2-methyl-1H-imidazo[4,5-b]pyridin-6-yl)-N-(1-(oxetan-3-yl)piperidin-4-yl)pyrrolo[2,1-f][1,2,4]triazin-2-amine] | 8.15 |
| C[C@]1(O)CC[C@H](Nc2ncc3c(-c4ccc5nnn(CC(F)F)c5c4)ccn3n2)CC1 [Compound 1890, trans-4-((5-(1-(2,2-Difluoroethyl)-1H-benzo[d][1,2,3]triazol-6-yl)pyrrolo [2,1-f][1,2,4]triazin-2-yl)amino)-1-methylcyclohexan-1-o1] | 7.85 |
| C[C@]1(O)CC[C@H](Nc2ncc3c(-c4ccn5nccc5c4)ccn3n2)CC1 [Compound 1891, trans-1-Methyl-4-((5-(pyrazolo[1,5-a]pyridin-5-yl)pyrrolo[2,1-f][1,2,4]triazin-2-yl)amino)cyclohexan-1-ol] | 7.96 |
| Cc1nc2ccc(-c3ccn4nc(N[C@H]5C[C@@H](N6CCOCC6)C5)ncc34)nc2n1CC(F)F [Compound 1892, 5-(3-(2,2-Difluoroethyl)-2-methyl-3H-imidazo[4,5-b]pyridin-5-yl)-N-(cis-3-morpholinocyclobutyl)pyrrolo[2,1-f][1,2,4]triazin-2-amine] | 8.70 |
| Cc1nc2ccc(-c3ccn4nc(N[C@H]5C[C@H](N6CCOCC6)C5)ncc34)nc2n1CC(F)F [Compound 1893, 5-(3-(2,2-Difluoroethyl)-2-methyl-3H-imidazo[4,5-b]pyridin-5-yl)-N-(trans-3-morpholinocyclobutyl)pyrrolo[2,1-f][1,2,4]triazin-2-amine] | 8.30 |
| Cc1nc2ccc(-c3ccn4nc(N[C@H]5CC[C@@H](CN6CC(F)C6)CC5)ncc34)nc2n1CC(F)F [Compound 1894, 5-(3-(2,2-Difluoroethyl)-2-methyl-3H-imidazo[4,5-b]pyridin-5-yl)-N-(cis-4-((3-fluoroazetidin-1-yl)methyl)cyclohexyl)pyrrolo [2,1-f] [1,2,4]triazin-2-amine] | 7.96 |
| Cc1nc2ccc(-c3ccn4nc(N[C@H]5CC[C@H](C(=O)N(C)C)CC5)ncc34)nc2n1CC(F)F [Compound 1895, trans-4-((5-(3-(2,2-Difluoroethyl)-2-methyl-3H-imidazo[4,5-b]pyridin-5-yl)pyrrolo[2,1-f] [1,2,4]triazin-2-yl)amino)-N,N-dimethylcyclohexane-1-carboxamide] | 8.52 |
| Cc1nc2ccc(-c3ccn4nc(N[C@H]5CC[C@@H](C(=O)N6CCC6)CC5)ncc34)nc2n1CC(F)F [Compound 1896, azetidin-1-yl(cis-4-((5-(3-(2,2-difluoroethyl)-2-methyl-3H-imidazo[4,5-b]pyridin-5-yl)pyrrolo[2,1-f][1,2,4]triazin-2-yl)amino)cyclohexyl)methanone] | 8.52 |
| CC(=O)N[C@H]1CC[C@@H](Nc2ncc3c(-c4ccc5nc(C)n(CC(F)F)c5n4)ccn3n2)CC1 [Compound 1898, N-(cis-4-((5-(3-(2,2-Difluoroethyl)-2-methyl-3H-imidazo [4,5-b]pyridin-5-yl)pyrrolo[2,1-f] [1,2,4]triazin-2-yl)amino)cyclohexyl)acetamide] | 8.52 |
| CC(=O)N1CC2(CCC(Nc3ncc4c(-c5ccc6nc(C)n(CC(F)F)c6n5)ccn4n3)CC2)C1 [Compound 1899, 1-(7-((5-(3-(2,2-difluoroethyl)-2-methyl-3H-imidazo[4,5-b]pyridin-5-yl)pyrrolo[2,1-f][1,2,4]triazin-2-yl)amino)-2-azaspiro[3.5]nonan-2-yl)ethan-1-one] | 9.00 |
| Cc1nc2ccc(-c3ccn4nc(N[C@@H]5CN(C)C[C@@H]5F)ncc34)nc2n1CC(F)F [Compound 1900] | 8.30 |
| Cc1nc2ccc(-c3ccn4nc(N[C@H]5CN(C)C[C@@H]5F)ncc34)nc2n1CC(F)F [Compound 1901, 5-(3-(2,2-Difluoroethyl)-2-methyl-3H-imidazo[4,5-b]pyridin-5-yl)-N-((3S,4S)-4-fluoro-1-methylpyrrolidin-3-yl)pyrrolo [2,1-f] [1,2,4]triazin-2-amine] | 8.40 |
| Cc1nc2ccc(-c3ccn4nc(N[C@@H]5CN(C)C[C@H]5F)ncc34)nc2n1CC(F)F [Compound 1902] | 8.22 |
| Cc1nc2ccc(-c3ccn4nc(N[C@H]5CN(C)C[C@H]5F)ncc34)nc2n1CC(F)F [Compound 1903, 5-(3-(2,2-Difluoroethyl)-2-methyl-3H-imidazo[4,5-b]pyridin-5-yl)-N-((3S,4R)-4-fluoro-1-methylpyrrolidin-3-yl)pyrrolo[2,1-f][1,2,4]triazin-2-amine] | 7.92 |
| Cc1nc2ccc(-c3ccn4nc(N[C@@H]5COC[C@H]5O)ncc34)nc2n1CC(F)F [Compound 1906, (3S,4R)-4-((5-(3-(2,2-Difluoroethyl)-2-methyl-3H-imidazo [4,5-b]pyridin-5-yl)pyrrolo[2,1-f][1,2,4]triazin-2-yl)amino)tetrahydrofuran-3-ol] | 8.40 |
